Reference: patent US20250281466A1, “USE OF CLOPIDOGREL OR COMBINATIONS THEREOF TO TREAT AMYOTROPHIC LATERAL SCLEROSIS, DAMAGES CAUSED BY THE NORMAL AGING PROCESS, NERVE INJURIES, MUSCULAR DYSTROPHY, STRENUOUS PHYSICAL ACTIVITIES AND OTHER CONDITIONS THAT AFFECT SYNAPSES AS WELL AS SKELETAL MUSCLES” (Brown University, priority 2024, published 2025)
Read-outs that look alike come from different tables or passages of the source.

Assays:
[1] = system: SOD1^G93A mice; conditions: EDL of P120 SOD1^G93A mice, versus vehicle, *p<0.05, n=7-8
Experimental: (§1) We treated SOD1^G93A mice with either vehicle or Clopidogrel (1 mg/kg) for 30 days starting at symptom onset (90 days old). […] The EDL and TA are hindlimb muscles mostly composed of fast-twitch fibers that play similar function in leg movement. These muscles are adjacent to each other and are affected early in ALS38.
Discussion of Research Design (current) and Experimental Methods: Currently Disclosed Aim 1A: Identify the optimal Clopidogrel dose to protect NMJs from ALS.

[2] = system: SOD1^G93A mice; conditions: Clopidogrel 1 mg/kg for 30 days from 90 days old, versus vehicle (FIG. 3C)
Experimental: as §1

[3] = system: SOD1^G93A mice; conditions: P120 SOD1^G93A mice
Excerpt: In FIGS. 4A-4H, DigiGait™ was used for gate analysis of P120 SOD1^G93A mice treated with Vehicle or the P2Y12 antagonist Clopidogrel. […] Scale bar=10 μm.
To this end, before sacrificing mice for histological analysis, we examined the gait patterns of SOD1^G93A mice treated with Clopidogrel and vehicle using the DigiGait™ system.

[4] = system: mouse model of ALS
Excerpt: FIGS. 11A-11F provide a summary of Clopidogrel treatment on mouse model of ALS. FIG. 11A (control) and FIG. 11B provide images showing neuromuscular junctions (NMJs) treated with vehicle (control) and Clopidogrel. Blue depicts axons and Magenta muscle region in contact with motor axons.
FIGS. 11A-11F provide a summary of Clopidogrel treatment on a mouse model of ALS. FIG. 11A (control, left) and FIG. 11B (Clopidogrel, right) provide images showing neuromuscular junctions (NMJs) treated with vehicle (control, left) and Clopidogrel (right). Blue (or grey in upper panels) depicts axons and Magenta (grey in lower panels) muscle region in contact with motor axons.

[5] = system: SOD1^G93A mice; conditions: SOD1^G93A mice examined at 15 and 30 days after treatment starting at 90 days of age, compared to vehicle (FIG. 5B)
Excerpt: NeuroScore involved observing the ability of mice to control the position and mobility of both hindlimbs independently of each other. In this 0-4 point scoring system, 0 represents normal control and 4 represents complete loss of the ability to command hindlimb movement (FIG. 5A).
We also assessed disease progression in mice using the neurological scoring system (NeuroScore) which is used to determine disease stage in SOD1^G93A mice. NeuroScore involved observing the ability of mice to control the position and mobility of both hindlimbs independently of each other. In this 0-4 point scoring system, 0 represents normal control and 4 represents complete loss of the ability to command hindlimb movement (for example, see FIG. 5A).

[6] = general statement, no test described; cited from earlier work
[7] = system: mice; conditions: general statement before a planned dose pilot study; cited from earlier work

## COC(=O)[C@H](c1ccccc1Cl)N1CCc2sccc2C1 [Clopidogrel]
[1]
  fully denervated NMJs (analysis of NMJ innervation, FIG. 3B): fewer fully denervated NMJs
[2]
  TA muscle mass: significantly preserved the overall mass of the tibialis anterior (TA) muscle
[2]; listed as clopidogrel
  TA muscle mass: higher TA muscle mass
[3]; compared to vehicle, n=3-5 (FIG. 4A, 4B)
  stride frequency (DigiGait): increases stride frequency
[3]; compared to vehicle, n=3-5 (FIG. 4C, 4D)
  swing duration (DigiGait): reduces swing duration
[3]; forelimb and hindlimb, versus vehicle (FIG. 4G, 4H)
  percent brake of stride (DigiGait): increased
[3]; versus vehicle (FIG. 4E, 4F)
  brake time (DigiGait): increased the brake time
[4]; versus vehicle control (FIG. 11C, 11E)
  intactness of muscle regions in contact with motor axons (NMJ): more intact
[4]; versus vehicle control (FIG. 11D, 11F)
  number of denervated NMJs: reduces the number of denervated NMJs
[5]
  disease progression by NeuroScore (0-4 point scoring system): the disease progressed slower
[6]
  crossing of the blood-brain-barrier (BBB): does not cross the blood-brain-barrier
[7]
  side effects in mice: lethargy, weight loss and internal bleeding
